Source: ChEMBL document CHEMBL5143605, “Discovery of 4-phenylindolines containing a (5-cyanopyridin-3-yl)methoxy moiety as potent inhibitors of the PD-1/PD-L1 interaction” (Bioorg Med Chem Lett, 2022)

Each molecule was assayed against Programmed cell death protein 1/Programmed cell death 1 ligand 1 (Homo sapiens, UniProt Q15116+Q9NZQ7) (assay: Inhibition of Tag2-PD1/Tag1-PD-L1 (unknown origin) protein-protein interaction preincubated for 15 mins followed by addition of anti-Tag1-Eu3+ and anti-Tag2-XL665 and measured after 2 hrs by HTRF analysis).
Programmed cell death protein 1/Programmed cell death 1 ligand 1, sequence (Q15116 whole entry): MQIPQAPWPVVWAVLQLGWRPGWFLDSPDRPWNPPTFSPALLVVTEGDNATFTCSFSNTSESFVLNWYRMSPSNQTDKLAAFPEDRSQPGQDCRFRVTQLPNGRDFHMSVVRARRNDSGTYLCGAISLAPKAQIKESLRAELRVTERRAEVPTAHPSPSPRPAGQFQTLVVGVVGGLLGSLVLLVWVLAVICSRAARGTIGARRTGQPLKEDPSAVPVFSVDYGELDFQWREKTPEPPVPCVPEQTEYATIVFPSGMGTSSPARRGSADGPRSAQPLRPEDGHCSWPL
Programmed cell death protein 1/Programmed cell death 1 ligand 1, sequence (Q9NZQ7 whole entry): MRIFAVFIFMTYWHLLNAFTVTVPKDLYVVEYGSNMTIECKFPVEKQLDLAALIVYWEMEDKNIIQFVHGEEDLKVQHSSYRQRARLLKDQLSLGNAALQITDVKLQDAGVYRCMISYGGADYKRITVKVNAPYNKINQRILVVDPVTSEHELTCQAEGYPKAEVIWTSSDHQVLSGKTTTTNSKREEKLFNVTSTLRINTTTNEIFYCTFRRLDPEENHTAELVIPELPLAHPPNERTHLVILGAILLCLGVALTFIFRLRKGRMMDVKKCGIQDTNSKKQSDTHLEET
Assay type: protein-complex assay

| Compound | IC50 [nM] |
| --- | --- |
| COc1cc(C(=O)N2CCc3c(-c4ccccc4)cccc32)ccc1CNCCO | 161 |
| O=C(c1ccc(CNCCO)cc1)N1CCc2c(-c3cccc4[nH]ccc34)cccc21 | 635 |
| O=C(c1ccc(CNCCO)cc1)N1CCc2c(-c3ccc4nccnc4c3)cccc21 | > 5000 |
| N#Cc1cncc(COc2cc(C(=O)N3CCc4c(-c5ccccc5)cccc43)ccc2CN2CC[C@H](C(=O)O)C2)c1 | 53.2 |
| N#Cc1cncc(COc2cc(C(=O)N3CCc4c(-c5ccccc5)cccc43)ccc2CN2CC[C@H](CO)C2)c1 | 128 |
| N#Cc1cncc(COc2cc(C(=O)N3CCc4c(-c5ccccc5)cccc43)ccc2CN2CCC[C@H]2C(=O)O)c1 | 626 |
| N#Cc1cncc(COc2cc(C(=O)N3CCc4c(-c5ccccc5)cccc43)ccc2CNCCO)c1 | 87.3 |
| CN(CCO)Cc1ccc(C(=O)N2CCc3c(-c4ccccc4)cccc32)cc1OCc1cncc(C#N)c1 | 60.1 |
| O=C(c1ccc(CNCCO)cc1)N1CCc2c(-c3cnc4[nH]ccc4c3)cccc21 | 876 |
| N#Cc1cc(COc2cc(C(=O)N3CCc4c(-c5ccccc5)cccc43)ccc2CNCCO)ccn1 | 105 |
| COCCNCc1ccc(C(=O)N2CCc3c(-c4ccccc4)cccc32)cc1OCc1cncc(C#N)c1 | 251 |
| CC(=O)NCCNCc1ccc(C(=O)N2CCc3c(-c4ccccc4)cccc32)cc1OCc1ccnc(C#N)c1 | 308 |
| CC(=O)NCCNCc1ccc(S(=O)(=O)N2CCc3c(-c4ccccc4)cccc32)cc1 | > 5000 |
| CC(C)(CO)NCc1ccc(C(=O)N2CCc3c(-c4ccccc4)cccc32)cc1OCc1cncc(C#N)c1 | 116 |
| COc1cccc(-c2cccc3c2CCN3C(=O)c2ccc(CNCCO)cc2)n1 | > 5000 |
| O=C(c1ccc(CNCCO)cc1)N1CCc2c(-c3ccc4ocnc4c3)cccc21 | 192 |
| O=C(c1ccc(CNCCO)cc1)N1CCc2c(-c3ccncc3)cccc21 | > 5000 |
| N#Cc1cncc(COc2cc(C(=O)N3CCc4c(-c5ccccc5)cccc43)ccc2CN2CC[C@@H](CO)C2)c1 | 132 |
| N#Cc1cncc(COc2cc(C(=O)N3CCc4c(-c5ccccc5)cccc43)ccc2CN2CC[C@@H](O)C2)c1 | 124 |
| N#Cc1cncc(COc2cc(C(=O)N3CCc4c(-c5ccccc5)cccc43)ccc2CNC2CCOCC2)c1 | 378 |
| N#Cc1cncc(COc2cc(C(=O)N3CCc4c(-c5ccccc5)cccc43)ccc2CN2CC[C@H](O)C2)c1 | 74.6 |
| CC(=O)NCCNCc1ccc(C(=O)N2CCc3c(-c4ccccc4)cccc32)cc1OCc1cncc(C#N)c1 | 154 |
| CC(C)(CO)NCc1ccc(S(=O)(=O)N2CCc3c(-c4ccccc4)cccc32)cc1 | > 5000 |
| CC(C)(CO)NCc1ccc(C(=O)N2CCc3c(-c4ccccc4)cccc32)cc1OCc1ccnc(C#N)c1 | 229 |
